Laboratory results reported in patent US20230391761A1, “S[…]-ALANINATE DERIVATIVES” (BAYER AKTIENGESELLSCHAFT, priority 2021, published 2023).

Experiment: Solubility in Citrate Buffer pH 4
Settings: 25 °C, pH 4, aqueous buffer, thermodynamic from solid
Method: 25 mg compound are placed in 2 ml solvent. […] Thereafter, the solution or suspension is filtered and the remaining solution is analyzed via HPLC. The solubility is determined by comparison of the total area of the substance peak to a calibration curve (external standard).
Thereafter, the solution was centrifuged and analyzed via HPLC. The solubility was determined by comparison of the total area of the substance peak to a calibration curve (external standard). The measurements were conducted in triplicates.

Question: With `CCc1c(N2CC[C@H](O)C2=O)cccc1S(=O)(=O)N[C@@H](CNC(=O)c1ccc(Cl)s1)C(=O)OCCc1nccn1C.Cl` [Example 2, 2-(1-Methyl-1H-imidazol-2-yl)ethyl 3-[(5-chlorothiophene-2-carbonyl)amino]-N-{2-ethyl-3-[(3S)-3-hydroxy-2-oxopyrrolidin-1-yl]benzene-1-sulfonyl}-S-alaninate hydrochloride] as the compound, how does the solubility at 24 h read?
Answer: > 500 mg/mL
